Usually GI50 stands for the concentration giving 50% growth inhibition. In general, TGI refers to the concentration giving total growth inhibition.

These results are taken from PubChem BioAssay (NCI).

What all share (experiment): DTP human tumour cell line panel, 48 h
Experiment [1] deals with NCI/ADR-RES ovarian.
Experiment [2] has as its system RXF 393 renal.
In experiment [3] the test system is HOP-62 NSCLC.
In experiment [4] the test system is UO-31 renal.
In experiment [5] the test system is ACHN renal.
Experiment [6] deals with EKVX NSCLC.
For experiment [7], the system named is HOP-92 NSCLC.
Experiment [8] deals with SK-MEL-2 melanoma.
The subject of experiment [9] is LOX IMVI melanoma.
Experiment [10] relates to DU-145 prostate.

SMILES strings stand for the structures.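 Each compound was tested at five concentrations against cells in 96-well plates for 48 hours. GI50 marks 50% less growth. TGI: total growth inhibition.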 Some results are limits rather than exact numbers.

As for `O=C(c1ccccc1)C(Cl)C(Cl)c1ccccc1` (stereo not given), the GI50 in [1] is 2440 nM; in experiment [2] it was 1720 nM; in experiment [3], 7.61 µM; in experiment [4], 1620 nM; in [5] it was 2210 nM; in experiment [6] it was 5.24 µM. Further, the GI50 in experiment [7] is 2310 nM; in experiment [8], 3.55 µM; in experiment [9], 1430 nM; in experiment [10], 2890 nM. In addition, the concentration for total growth inhibition (TGI) came out at 7.35 µM in [1]; 3.52 µM in [2]; 21.7 µM in experiment [3]; 3.45 µM in experiment [4]; 5.23 µM in experiment [5]; 18.9 µM in experiment [6]. Further, the TGI came to 6.99 µM in experiment [7], 9.33 µM in experiment [8], 2820 nM in experiment [9] and 10.2 µM in [10].
In the case of `COc1cc(-c2cc3ncccc3c3nc(OCCN(C)C)c4cccnc4c23)cc(OC)c1OC`, the GI50 in experiment [1] is 383 nM; in experiment [2], 473 nM; in [3], 0.75 µM; in [4], 280 nM; in experiment [5], 281 nM; in experiment [6] it was 0.513 µM. The GI50 is 1100 nM in experiment [7], 0.744 µM in experiment [8], 275 nM in experiment [9] and 500 nM in experiment [10]. Moreover, the TGI was found to be 2.1 µM in experiment [1]; 2.07 µM in experiment [2]; 3 µM in [3]; 1.32 µM in experiment [4]; 1.54 µM in [5]; 3.24 µM in experiment [6]. Besides, the TGI is 3.2 µM in experiment [7], 3.71 µM in [8], 1260 nM in experiment [9] and greater than 100 µM in experiment [10].
Consider `CNS(=O)(=O)OCC1OC(n2cnc3cncnc32)C(O)C1O` (stereo not given), for which the GI50 in [1] is greater than 100000 nM; in experiment [2], greater than 100000 nM; in experiment [3], greater than 100 µM; in experiment [4], greater than 100000 nM; in [5], greater than 100000 nM; in [6], greater than 100 µM. For the same compound, the GI50 is greater than 100000 nM in experiment [7], greater than 100 µM in experiment [8], greater than 100000 nM in experiment [9] and greater than 100000 nM in experiment [10]. Also, the total growth inhibition concentration (TGI) in [1], in [2], in [3], in experiment [4], in experiment [5] and in experiment [6] was greater than 100 µM each time. For the same compound, the TGI in experiment [7] was greater than 100 µM; in experiment [8] it was greater than 100 µM; in experiment [9], greater than 100000 nM; in experiment [10], greater than 100 µM.
